From patent US8445490B2, “Compounds for the treatment of hepatitis C” (priority 2009, dated 2013) come the findings set out here.

The test system of the assay is HCV pseudoparticles, genotype 1a (H77C) E1 and E2 envelope. As to the kind of experiment: microbe, parasite or virus in culture. To be noted: Hepatitis C virus, Huh-7, 48 h, HCV pseudoparticles 1a (H77C), Huh7 cells, luciferase 2 days after infection. It is filed as cell-based, HCV genotype 1a (H77C isolate).
[1] abbreviates: read-out: EC50 (nM) 1a (H77C), Table 1b, class.
Where [2] appears, read: read-out: EC50 (nM) 1a (H77C), Table 1a, class.
Setting [3] is: read-out: EC50 (nM) 1a (H77C), Table 1a.
[4] abbreviates: read-out: EC50 (nM) 1a (H77C), Table 1b.

Read-outs that look alike come from different tables or passages of the source. A value given as a limit tells only on which side of the number the result lay.

One may read the EC50 as the midpoint of the concentration-response curve. On to `CC(C)(C)OC(=O)N1CCCCCCCCNc2nc(nc(OCC(F)(F)F)n2)Nc2ccc(cc2)C(=O)NCCC1` [Example 9002], for which the EC50 under setting [1] lay within 0.1 to 100 nM.

For `O=C1CCNC(=O)c2ccc(cc2)Nc2nc(nc(OCC(F)(F)F)n2)NCc2ccc(cc2)OC/C=C/CS(=O)(=O)N1` [Example 3008], the EC50 under setting [2] is 100 to 1000 nM.

As to `CC(=O)N1CCNC(=O)c2ccc(cc2)Nc2nc(nc(OCC(F)(F)F)n2)NCC1` [Example 0005], the EC50 under setting [2] lay within 1000 to 5000 nM.

As for `CC(C)(C)OC(=O)N1CCN(CC2CNC(=O)c3ccc(cc3)Nc3nc(nc(OCC(F)(F)F)n3)NCc3ccc(cc3)OC/C=C/CO2)CC1` (stereo not shown) [Example 0009], the EC50 under setting [2] lay within 100 to 1000 nM.

For the compound `CCC(=O)N1CCCOc2ccc(cc2)CNc2nc(nc(OCC(F)(F)F)n2)Nc2ccc(cc2)C(=O)NCC1` [Example 6007], under setting [1], the 50% effective concentration (EC50) was 0.1 to 100 nM.

As to `O=C1NCCNCCNc2nc(nc(OCC(F)(F)F)n2)Nc2ccc1cc2` [Example 0001], the EC50 under setting [2] was in the range of 1000 to 5000 nM and the EC50 under setting [3] came out at 4200 nM.

On to `O=C1N[C@H]2CNC[C@@H]2C(=O)NCCCCCCOc2ccc(cc2)CNc2nc(nc(OCC(F)(F)F)n2)Nc2ccc1cc2` [Example 0007], for which the EC50 reads like this: under setting [2], 0.1 to 100 nM; under setting [3], 8.31 nM.

For `O=C1NCC(CN2CCNCC2)OC/C=C/COc2ccc(cc2)CNc2nc(nc(OCC(F)(F)F)n2)Nc2ccc1cc2` (stereo not shown) [Example 0010], the EC50 under setting [2] is 1000 to 5000 nM.

On to `O=C1NC(C2CCCNC2)C(=O)NCCCCCCOc2ccc(cc2)CNc2nc(nc(OCC(F)(F)F)n2)Nc2ccc1cc2` (stereo not shown) [Example 0011], for which the 50% effective concentration (EC50) was 0.1 to 100 nM under setting [2] and 62.8 nM under setting [3].

As for `CN(C)C(N1C[C@@H]2NC(=O)c3ccc(cc3)Nc3nc(nc(OCC(F)(F)F)n3)NCc3ccc(cc3)OCCCCCCNC(=O)[C@H]2C1)=[N+](C)C` [Example 0008], the EC50 under setting [2] lay in the range of 0.1 to 100 nM.

Turning to `O=C1CCNC(=O)c2ccc(cc2)Nc2nc(nc(OCC(F)(F)F)n2)NCc2ccc(cc2)OC/C=C\CS(=O)(=O)N1` [Example 3009], under setting [2], the 50% effective concentration (EC50) was 100 to 1000 nM.

For the compound `CCOC(=O)N1CCCOc2ccc(cc2)CNc2nc(nc(OCC(F)(F)F)n2)Nc2ccc(cc2)C(=O)NCC(C)(C)C1` [Example 6033], under setting [1], the EC50 lay within 0.1 to 100 nM.

Consider `CC(C)C(=O)N1CCCOc2ccc(cc2)CNc2nc(nc(OCC(F)(F)F)n2)Nc2ccc(cc2)C(=O)NCC1` [Example 6008], for which the EC50 under setting [1] lay within 0.1 to 100 nM.

Regarding `O=C1CCCCCCCCC(=O)NCc2ccc(cc2)Nc2nc(nc(OCC(F)(F)F)n2)NCc2ccc(cc2)CN1` [Example 0064], the EC50 is 100 to 1000 nM under setting [2] and 407 nM under setting [3].

`O=C1NCCCCCCCCCCCCNC(=O)c2ccc(cc2)Nc2nc(nc(OCC(F)(F)F)n2)NCc2ccc1cc2` [Example 0034]: the EC50 under setting [2] was 1000 to 5000 nM.

As for `O=C1NCCCNCCCCCCCCNc2nc(nc(OCC(F)(F)F)n2)Nc2ccc1cc2` [Example 9001], the EC50 was 100 to 1000 nM under setting [1] and 243 nM under setting [4].

As to `O=C1NCCCOCCCCOCCCNc2nc(nc(OCC(F)(F)F)n2)Nc2ccc1cc2` [Example 0004], the concentration giving a half-maximal response (EC50) runs as follows: under setting [2], 0.1 to 100 nM; under setting [3], 48.4 nM.

On to `CCOC(=O)N1CCCOc2ccc(cc2)CNc2nc(nc(OCC(F)(F)F)n2)Nc2ccc(cc2)C(=O)NCC1` [Example 6005], for which, under setting [1], the concentration giving a half-maximal response (EC50) fell in the range of 0.1 to 100 nM.

As for `O=C1NCCCCNCCCNc2nc(nc(OCC(F)(F)F)n2)Nc2ccc1cc2` [Example 7001], under setting [1], the concentration for a half-maximal effect (EC50) lay within 1000 to 5000 nM.

In the case of `CCCN1CCCOc2ccc(cc2)CNc2nc(nc(OCC(F)(F)F)n2)Nc2ccc(cc2)C(=O)NCC(C)(C)C1` [Example 6039], the EC50 under setting [1] was 0.1 to 100 nM.

For `O=C1NCCCCCNCCNc2nc(nc(OCC(F)(F)F)n2)Nc2ccc1cc2` [Example 8002], the EC50 runs as follows: under setting [1], 1000 to 5000 nM; under setting [4], greater than 50000 nM.

On to `O=C1NCCCCCCCCNc2nc(nc(OCC(F)(F)F)n2)Nc2ccc1cc2` [Example 0002], for which, under setting [2], the EC50 lay in the range of 0.1 to 100 nM.

On to `O=C1NS(=O)(=O)C/C=C/CCCCOc2ccc(cc2)CNc2nc(nc(OCC(F)(F)F)n2)Nc2ccc1cc2` [Example 3006], for which, under setting [2], the EC50 was in the range of 1000 to 5000 nM.

On to `O=C1NCCCNCCCOc2ccc(cc2)C2(CC2)Nc2nc(nc(OCC(F)(F)F)n2)Nc2ccc1cc2` [Example 5001], for which the EC50 under setting [1] was 0.1 to 100 nM.

In the case of `O=C1NS(=O)(=O)C/C=C/CCOc2ccc(cc2)CNc2nc(nc(OCC(F)(F)F)n2)Nc2ccc1cc2` [Example 3004], the half-maximal effective concentration (EC50) was 1000 to 5000 nM under setting [2] and 2940 nM under setting [3].

`CC(C)NC(=O)N1CCCOc2ccc(cc2)CNc2nc(nc(OCC(F)(F)F)n2)Nc2ccc(cc2)C(=O)NCC1` [Example 6003]: under setting [1], the EC50 was 0.1 to 100 nM.

As to `O=C1NCCCCCCCCCNC(=O)c2ccc(cc2)Nc2nc(nc(OCC(F)(F)F)n2)NCc2ccc1cc2` [Example 0037], the EC50 under setting [2] is 100 to 1000 nM.

Consider `CCOC(=O)N1CCCNC(=O)c2ccc(cc2)Nc2nc(nc(OCC(F)(F)F)n2)NC2(CC2)c2ccc(cc2)OCCC1` [Example 5002], for which the 50% effective concentration (EC50) under setting [1] was in the range of 0.1 to 100 nM.

Take `O=C1NCCCCCCCCCCNc2nc(nc(OCC(F)(F)F)n2)Nc2ccc1cc2` [Example 0003]: the EC50 is 100 to 1000 nM under setting [2] and 101 nM under setting [3].

For the compound `CC(C)OC(=O)N1CCCOc2ccc(cc2)CNc2nc(nc(OCC(F)(F)F)n2)Nc2ccc(cc2)C(=O)NCC1` [Example 6004], under setting [1], the 50% effective concentration (EC50) is 0.1 to 100 nM.

Regarding `CC(C)(C)NC(=O)N1CCCNC(=O)c2ccc(cc2)Nc2nc(nc(OCC(F)(F)F)n2)NCc2ccc(cc2)OCCC1` [Example 6013], the EC50 under setting [1] was 0.1 to 100 nM.

In the case of `O=C1NCCCCNC(=O)C2(CC2)Nc2nc(nc(OCC(F)(F)F)n2)Nc2ccc1cc2` [Example 0006], the concentration for a half-maximal effect (EC50) under setting [2] lay in the range of 1000 to 5000 nM.

For `CCC(=O)N1CCCCNC(=O)c2ccc(cc2)Nc2nc(nc(OCC(F)(F)F)n2)NC2(CC2)c2ccc(cc2)OCCC1` [Example 5005], the EC50 under setting [1] is 0.1 to 100 nM.

For the compound `O=C1NCCCOCCOCCOCCCNC(=O)c2ccc(cc2)Nc2nc(nc(OCC(F)(F)F)n2)NCc2ccc1cc2` [Example 0036], the 50% effective concentration (EC50) under setting [2] lay in the range of 1000 to 5000 nM.

`CC(C)(C)NC(=O)N1CCCOc2ccc(cc2)CNc2nc(nc(OCC(F)(F)F)n2)Nc2ccc(cc2)C(=O)NCC1` [Example 6001]: the half-maximal effective concentration (EC50) under setting [1] is 0.1 to 100 nM.

`O=C1NCCCCCCCCCCCNC(=O)c2ccc(cc2)Nc2nc(nc(OCC(F)(F)F)n2)NCc2ccc1cc2` [Example 0038]: the 50% effective concentration (EC50) under setting [2] lay in the range of 100 to 1000 nM and the EC50 under setting [3] was determined as 840 nM.
